Laboratory results published in patent US20250325562A1, “Intravenous Ganaxolone Formulations and Methods of Use in Treating Status Epilepticus and Other Seizure Disorders” (MARINUS PHARMACEUTICALS, INC., priority 2015, published 2025).

Columns and labels:
[1] = in vivo; cited from earlier work
[2] = system: pilocarpine induced status epilepticus (SE); experiment: Pilocarpine-induced status epilepticus in rats, cortical EEG power; type: in vivo, Male Sprague-Dawley rats; set-up: key to Treatment effect on EEG power vs vehicle, significance: * P < 0.05; ** P < 0.01; *** P < 0.001; **** P < 0.0001; ns = not significant; conditions: 15 mg/kg IV
Description: This study was designed to determine the ability of a CAPTISOL-ganaxolone (GNX) formulation administered intravenously (IV) at 12 and 15 mg/kg to inhibit pilocarpine induced status epilepticus (SE). Allopregnanolone (Allo) (15 mg/kg; IV) was also evaluated for comparison. In this study, test drugs were administered either 15 or 60 minutes after onset of SE and compared to vehicle (30% Captisol).
Cortical EEG activity was recorded in rats before and after administration of pilocarpine to induce SE. Animals were pre-treated with LiCl to enhance and improve reliability of seizure induction and scopolamine to reduce peripheral cholinergic side effects of pilocarpine. EEG activity was recorded for 5 h after SE onset, and anticonvulsant activity was assessed by determining changes in EEG power over frequency ranges from 0.3 to 96 Hz.
Male Sprague-Dawley rats were used for the studies. Rats were surgically implanted with EEG electrodes and jugular vein catheters. The mean weight at the time of recording was 321+3 g (269-351 g).
EEG electrodes were surgically implanted in anesthetized rats. Animals were also treated with an anti-inflammatory anaelgesic (RIMADYL, (carprofen)) prior to surgery and a subcutaneous local anesthetic. Stainless steel screw electrodes chronically were implanted in the skull (0-80×¼″, Plastics-One, Roanoke, VA) such that the ends of the screws were flush with the inner skull surface. One electrode was located 3.0 mm anterior to bregma and 2 mm to the left of midline, and the second 4.0 mm posterior to bregma and 2.5 mm to the right of midline. The skull surface around the electrodes was sealed with super glue and dental acrylic, and the EEG electrode lead wires were inserted into a plastic pedestal mounted on the skull using dental acrylic. Wound edges were treated with triple antibiotic cream (bacitracin zinc, neomycin sulfate, polymyxin B sulfate; Walgreens). Following surgery, animals were administered antibiotic (ampicillin, 50 mg/kg IP at 0.4 mL/kg) and also received a chewable dose (˜10 mg) of Rimadyl following surgery. The animals were allowed to recover from EEG surgery for 1 week.
Rats were implanted with jugular-vein catheters (JVC) one week following EEG surgery. Rats were administered an anti-inflammatory/analgesic and then anesthetized and placed in a supine position. An incision was made in the skin on the right ventrolateral aspect of the neck to expose the external jugular vein which was then dissected free of surrounding fascia. A ligature was tied around the vein anteriorly to occlude blood flow returning to the heart. A second ligature was loosely tied around the vein posteriorly to create tension on the vessel during venotomy and catheter insertion. After incising the vein, a PE catheter (3Fr) was inserted into the vein and advanced approximately 30 mm towards the heart, positioning the tip at the junction of the precava and right atrium. After confirming patency of the catheter by blood withdrawal, the posterior ligature was tied off, and the catheter flushed with a “heparin-lock” solution (5 units heparin/ml saline) and plugged with a sterilized stainless steel pin. The catheter was then exteriorized by tunneling through the subcutaneous tissue to exit posterior to the head between the shoulder blades. Lastly, after suturing the catheter to the skin, all wounds were closed using sutures or wound clips. Immediately following surgery, the animals were awakened to assess catheter patency. Animals also received a chewable dose (˜10 mg) of Rimadyl following surgery to minimize pain and inflammation.
Animals were allowed a 1-week recovery time following JVC surgery. Jugular vein catheters were flushed daily with a 0.1 mL of heparin solution (5 units/mL) to maintain patency. On the day of surgery, the flushing solution contained ampicillin sulbactam (50 mg/kg). […]

SMILES: CC(=O)[C@H]1CC[C@H]2[C@@H]3CC[C@H]4C[C@H](O)CC[C@]4(C)[C@H]3CC[C@]12C [Allopregnanolone]
- half-life [1]: very short
- reduction in SE ([2]; 60′ dosing delay, 0-5 and 5-10 Hz): strong reduction in SE in the first 15′ after dosing
- Treatment effect on EEG power vs vehicle, significance ([2]; 15 min post SE onset, 0-5 Hz, 0-15 min. post drug): **** (**** P < 0.0001)
- Treatment effect on EEG power vs vehicle, significance ([2]; 15 min post SE onset, 0-5 Hz, 1-2 hrs post drug): *** (*** P < 0.001)
- Treatment effect on EEG power vs vehicle, significance ([2]; 15 min post SE onset, 0-5 Hz, 2-3 hrs post drug): * (* P < 0.05)
- Treatment effect on EEG power vs vehicle, significance ([2]; 15 min post SE onset, 0-5 Hz, 3-5 hrs post drug): ns
- Treatment effect on EEG power vs vehicle, significance ([2]; 15 min post SE onset, 0-5 Hz, 15-30 min post drug): **** (**** P < 0.0001)
- Treatment effect on EEG power vs vehicle, significance ([2]; 15 min post SE onset, 0-5 Hz, 30-60 min post drug): **** (**** P < 0.0001)
- Treatment effect on EEG power vs vehicle, significance ([2]; 15 min post SE onset, 5-10 Hz, 0-15 min. post drug): **** (**** P < 0.0001)
- Treatment effect on EEG power vs vehicle, significance ([2]; 15 min post SE onset, 5-10 Hz, 1-2 hrs post drug): *** (*** P < 0.001)
- Treatment effect on EEG power vs vehicle, significance ([2]; 15 min post SE onset, 5-10 Hz, 2-3 hrs post drug): ns
- Treatment effect on EEG power vs vehicle, significance ([2]; 15 min post SE onset, 5-10 Hz, 3-5 hrs post drug): ns
- Treatment effect on EEG power vs vehicle, significance ([2]; 15 min post SE onset, 5-10 Hz, 15-30 min post drug): **** (**** P < 0.0001)
- Treatment effect on EEG power vs vehicle, significance ([2]; 15 min post SE onset, 5-10 Hz, 30-60 min post drug): **** (**** P < 0.0001)
- Treatment effect on EEG power vs vehicle, significance ([2]; 15 min post SE onset, 10-30 Hz, 0-15 min. post drug): **** (**** P < 0.0001)
- Treatment effect on EEG power vs vehicle, significance ([2]; 15 min post SE onset, 10-30 Hz, 1-2 hrs post drug): ** (** P < 0.01)
- Treatment effect on EEG power vs vehicle, significance ([2]; 15 min post SE onset, 10-30 Hz, 2-3 hrs post drug): ns
- Treatment effect on EEG power vs vehicle, significance ([2]; 15 min post SE onset, 10-30 Hz, 3-5 hrs post drug): ns
- Treatment effect on EEG power vs vehicle, significance ([2]; 15 min post SE onset, 10-30 Hz, 15-30 min post drug): **** (**** P < 0.0001)
- Treatment effect on EEG power vs vehicle, significance ([2]; 15 min post SE onset, 10-30 Hz, 30-60 min post drug): *** (*** P < 0.001)
- Treatment effect on EEG power vs vehicle, significance ([2]; 15 min post SE onset, 30-50 Hz, 0-15 min. post drug): **** (**** P < 0.0001)
- Treatment effect on EEG power vs vehicle, significance ([2]; 15 min post SE onset, 30-50 Hz, 1-2 hrs post drug): ns
- Treatment effect on EEG power vs vehicle, significance ([2]; 15 min post SE onset, 30-50 Hz, 2-3 hrs post drug): ns
- Treatment effect on EEG power vs vehicle, significance ([2]; 15 min post SE onset, 30-50 Hz, 3-5 hrs post drug): ns
- Treatment effect on EEG power vs vehicle, significance ([2]; 15 min post SE onset, 30-50 Hz, 15-30 min post drug): **** (**** P < 0.0001)
- Treatment effect on EEG power vs vehicle, significance ([2]; 15 min post SE onset, 30-50 Hz, 30-60 min post drug): *** (*** P < 0.001)
- Treatment effect on EEG power vs vehicle, significance ([2]; 15 min post SE onset, 50-70 Hz, 0-15 min. post drug): *** (*** P < 0.001)
- Treatment effect on EEG power vs vehicle, significance ([2]; 15 min post SE onset, 50-70 Hz, 1-2 hrs post drug): ns
- Treatment effect on EEG power vs vehicle, significance ([2]; 15 min post SE onset, 50-70 Hz, 2-3 hrs post drug): ns
- Treatment effect on EEG power vs vehicle, significance ([2]; 15 min post SE onset, 50-70 Hz, 3-5 hrs post drug): ns
- Treatment effect on EEG power vs vehicle, significance ([2]; 15 min post SE onset, 50-70 Hz, 15-30 min post drug): *** (*** P < 0.001)
- Treatment effect on EEG power vs vehicle, significance ([2]; 15 min post SE onset, 50-70 Hz, 30-60 min post drug): ** (** P < 0.01)
- Treatment effect on EEG power vs vehicle, significance ([2]; 15 min post SE onset, 70-96 Hz, 0-15 min. post drug): *** (*** P < 0.001)
- Treatment effect on EEG power vs vehicle, significance ([2]; 15 min post SE onset, 70-96 Hz, 1-2 hrs post drug): ns
- Treatment effect on EEG power vs vehicle, significance ([2]; 15 min post SE onset, 70-96 Hz, 2-3 hrs post drug): ns
- Treatment effect on EEG power vs vehicle, significance ([2]; 15 min post SE onset, 70-96 Hz, 3-5 hrs post drug): ns
- Treatment effect on EEG power vs vehicle, significance ([2]; 15 min post SE onset, 70-96 Hz, 15-30 min post drug): *** (*** P < 0.001)
- Treatment effect on EEG power vs vehicle, significance ([2]; 15 min post SE onset, 70-96 Hz, 30-60 min post drug): ** (** P < 0.01)
- reduction in SE ([2]; 15 minutes post-seizure onset): strong reduction in SE up to 1 h post dosing
- Treatment effect on EEG power vs vehicle, significance ([2]; 60 min post SE onset, 0-5 Hz, 0-15 min. post drug): ** (** P < 0.01)
- Treatment effect on EEG power vs vehicle, significance ([2]; 60 min post SE onset, 0-5 Hz, 1-2 hrs post drug): ns
- Treatment effect on EEG power vs vehicle, significance ([2]; 60 min post SE onset, 0-5 Hz, 2-3 hrs post drug): ns
- Treatment effect on EEG power vs vehicle, significance ([2]; 60 min post SE onset, 0-5 Hz, 3-5 hrs post drug): ns
- Treatment effect on EEG power vs vehicle, significance ([2]; 60 min post SE onset, 0-5 Hz, 15-30 min post drug): ns
- Treatment effect on EEG power vs vehicle, significance ([2]; 60 min post SE onset, 0-5 Hz, 30-60 min post drug): Ns
- Treatment effect on EEG power vs vehicle, significance ([2]; 60 min post SE onset, 5-10 Hz, 0-15 min. post drug): ** (** P < 0.01)
- Treatment effect on EEG power vs vehicle, significance ([2]; 60 min post SE onset, 5-10 Hz, 1-2 hrs post drug): ns
- Treatment effect on EEG power vs vehicle, significance ([2]; 60 min post SE onset, 5-10 Hz, 2-3 hrs post drug): ns
- Treatment effect on EEG power vs vehicle, significance ([2]; 60 min post SE onset, 5-10 Hz, 3-5 hrs post drug): ns
- Treatment effect on EEG power vs vehicle, significance ([2]; 60 min post SE onset, 5-10 Hz, 15-30 min post drug): ns
- Treatment effect on EEG power vs vehicle, significance ([2]; 60 min post SE onset, 5-10 Hz, 30-60 min post drug): Ns
- Treatment effect on EEG power vs vehicle, significance ([2]; 60 min post SE onset, 10-30 Hz, 0-15 min. post drug): ns
- Treatment effect on EEG power vs vehicle, significance ([2]; 60 min post SE onset, 10-30 Hz, 1-2 hrs post drug): ns
- Treatment effect on EEG power vs vehicle, significance ([2]; 60 min post SE onset, 10-30 Hz, 2-3 hrs post drug): ns
- Treatment effect on EEG power vs vehicle, significance ([2]; 60 min post SE onset, 10-30 Hz, 3-5 hrs post drug): ns
- Treatment effect on EEG power vs vehicle, significance ([2]; 60 min post SE onset, 10-30 Hz, 15-30 min post drug): ns
- Treatment effect on EEG power vs vehicle, significance ([2]; 60 min post SE onset, 10-30 Hz, 30-60 min post drug): Ns
- Treatment effect on EEG power vs vehicle, significance ([2]; 60 min post SE onset, 30-50 Hz, 0-15 min. post drug): ns
- Treatment effect on EEG power vs vehicle, significance ([2]; 60 min post SE onset, 30-50 Hz, 1-2 hrs post drug): ns
- Treatment effect on EEG power vs vehicle, significance ([2]; 60 min post SE onset, 30-50 Hz, 2-3 hrs post drug): ns
- Treatment effect on EEG power vs vehicle, significance ([2]; 60 min post SE onset, 30-50 Hz, 3-5 hrs post drug): ns
- Treatment effect on EEG power vs vehicle, significance ([2]; 60 min post SE onset, 30-50 Hz, 15-30 min post drug): ns
- Treatment effect on EEG power vs vehicle, significance ([2]; 60 min post SE onset, 30-50 Hz, 30-60 min post drug): Ns
- Treatment effect on EEG power vs vehicle, significance ([2]; 60 min post SE onset, 50-70 Hz, 0-15 min. post drug): ns
- Treatment effect on EEG power vs vehicle, significance ([2]; 60 min post SE onset, 50-70 Hz, 1-2 hrs post drug): ns
- Treatment effect on EEG power vs vehicle, significance ([2]; 60 min post SE onset, 50-70 Hz, 2-3 hrs post drug): ns
- Treatment effect on EEG power vs vehicle, significance ([2]; 60 min post SE onset, 50-70 Hz, 3-5 hrs post drug): ns
- Treatment effect on EEG power vs vehicle, significance ([2]; 60 min post SE onset, 50-70 Hz, 15-30 min post drug): ns
- Treatment effect on EEG power vs vehicle, significance ([2]; 60 min post SE onset, 50-70 Hz, 30-60 min post drug): Ns
- Treatment effect on EEG power vs vehicle, significance ([2]; 60 min post SE onset, 70-96 Hz, 0-15 min. post drug): ns
- Treatment effect on EEG power vs vehicle, significance ([2]; 60 min post SE onset, 70-96 Hz, 1-2 hrs post drug): ns
- Treatment effect on EEG power vs vehicle, significance ([2]; 60 min post SE onset, 70-96 Hz, 2-3 hrs post drug): ns
- Treatment effect on EEG power vs vehicle, significance ([2]; 60 min post SE onset, 70-96 Hz, 3-5 hrs post drug): ns
- Treatment effect on EEG power vs vehicle, significance ([2]; 60 min post SE onset, 70-96 Hz, 15-30 min post drug): ns
- Treatment effect on EEG power vs vehicle, significance ([2]; 60 min post SE onset, 70-96 Hz, 30-60 min post drug): Ns
